Measurements reported in publication PMC9781217, “Discovery of Novel and Selective G-Protein Coupled Receptor 120 (GPR120) Agonists for the Treatment of Type 2 Diabetes Mellitus” (Molecules, 2022).
Like-named read-outs stand apart in the source and are kept apart here.

Tests used:
[1] = molecular target: mouse GPR40 (mGPR40) (Mus musculus, UniProt Q76JU9); assay: Calcium flux assay in CHO cells expressing mouse GPR40
Procedure: (§1) A calcium flux assay was performed to assess the agonist activity of the test compounds against the hGPR120 (mGPR120) and hGPR40 (mGPR40) receptors. […] The medium in the wells was gently discarded, and the wells were washed with Hank’s balanced salt solution (HBSS; 100 μL per well). […] The cells were then washed thrice in HBSS and allowed to equilibrate for 10 min before conducting the assay. Test compounds dissolved in dimethyl sulfoxide were diluted in HBSS at various concentrations and added to Fluo-4 AM-containing cells, and intracellular Ca^2+ concentrations were measured using FlexStation3 Molecular Devices. The EC50 value of each compound was calculated using GraphPad Prism software (version 5.0; GraphPad Software, San Diego, CA, USA).

[2] = tested on: DIO mice; assay: Anti-hyperglycemic effects (OGTT, insulin) in DIO mice; assay type: in vivo, C57BL/6 mice; settings: 20 mg/kg oral
Procedure: Blood samples were collected with retro-orbital sinus puncture, and glucose levels were measured in accordance with the OGTT in normal mice. Plasma insulin levels were measured using a mouse insulin RIA kit (Beijing North Institute of Biological Technology, Beijing, China).

[3] = molecular target: T1, mouse GPR120 (mGPR120) (Mus musculus, UniProt Q7TMA4); assay: Calcium flux assay in CHO cells expressing mouse GPR120
T1 sequence (Q7TMA4 1-361): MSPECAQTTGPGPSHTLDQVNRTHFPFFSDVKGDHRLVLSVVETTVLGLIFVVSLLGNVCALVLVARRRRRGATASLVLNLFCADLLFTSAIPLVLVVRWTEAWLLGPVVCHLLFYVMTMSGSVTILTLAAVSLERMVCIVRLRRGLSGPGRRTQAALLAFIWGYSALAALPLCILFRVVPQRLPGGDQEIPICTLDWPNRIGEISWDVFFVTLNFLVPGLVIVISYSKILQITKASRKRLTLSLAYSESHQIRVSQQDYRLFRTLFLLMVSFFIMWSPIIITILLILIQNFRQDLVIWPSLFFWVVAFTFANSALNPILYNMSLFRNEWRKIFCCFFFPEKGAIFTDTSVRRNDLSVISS
Procedure: as §1

[4] = tested on: C57BL/6 mice; assay: Oral glucose tolerance test (OGTT) in normal C57BL/6 mice; assay type: in vivo
Procedure: GPR120 agonists have been reported to increase GLP-1 secretion and improve glucose tolerance in vivo [28]. […] Compound 14d was orally administered at doses of 3, 10, 30, and 100 mg/kg, 30 min before the oral glucose challenge at a dose volume of 3 g/kg. Glucose levels were measured from 30 min before glucose challenge to 120 min after the glucose challenge.
Normal male C57BL/6 mice aged 9 weeks were used for the OGTT for compound 14d. C57BL/6 mice were weighed and randomly divided into six groups (eight mice per group) after 12 h of fasting. The test compounds were dissolved in 0.5% MC and vortexed before the study initiation. […] The exact dose volume was calculated separately for each animal. Blood samples were collected via the tail tip 30 min before the compound dose, at t = 0 (immediately before glucose loading), and 15, 30, 60, and 120 min after glucose loading. Blood glucose levels were measured using blood glucose test strips (Sannuo GA-3 type; Changsha, China). Glucose values were entered into an Excel sheet and plotted using GraphPad Prism software.

[5] = molecular target: T2, human GPR120 (hGPR120) (Homo sapiens, UniProt Q5NUL3); assay: Calcium flux assay in hGPR120-transfected CHO cells
T2 sequence (Q5NUL3 1-361): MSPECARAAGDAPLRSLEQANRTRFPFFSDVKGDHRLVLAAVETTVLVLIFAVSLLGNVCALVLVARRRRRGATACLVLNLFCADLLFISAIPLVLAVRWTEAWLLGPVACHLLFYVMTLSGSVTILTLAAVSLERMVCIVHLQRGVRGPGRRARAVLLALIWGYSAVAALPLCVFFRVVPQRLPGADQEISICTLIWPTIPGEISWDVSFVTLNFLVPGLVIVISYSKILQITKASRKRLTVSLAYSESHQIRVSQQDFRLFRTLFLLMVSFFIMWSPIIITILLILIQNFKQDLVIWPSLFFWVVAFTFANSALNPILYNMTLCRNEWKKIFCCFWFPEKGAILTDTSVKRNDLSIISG
Procedure: as §1

[6] = Pharmacokinetic analysis in C57BL/6 mice; assay type: in vivo
Procedure: The pharmacokinetic profiles of 10k and 14d were obtained from C57BL/6 mice. […] The pharmacokinetic profiles traces were shown in the Supplementary Materials (Figure S1, see Supporting Materials).
Plasma was collected and precipitated using two volumes of acetonitrile containing an internal standard. This was followed by centrifugation at 15.680 g for 10 min after vortexing for 5 min. The supernatant was diluted with acetonitrile and 10 µL of the supernatant was analyzed by Waters LC-PDA-MS/MS to determine plasma drug levels. Pharmacokinetic parameters were determined using mean data from four mice at each time point. Statistical analysis of the data was performed using the DAS 2.1.1 statistical software program (BioVoice, Shanghai, China).

[7] = mGPR120, concentration response curve
[8] = hGPR120, concentration response curve

Chain of mouse GPR40 (mGPR40) (Q76JU9 whole entry): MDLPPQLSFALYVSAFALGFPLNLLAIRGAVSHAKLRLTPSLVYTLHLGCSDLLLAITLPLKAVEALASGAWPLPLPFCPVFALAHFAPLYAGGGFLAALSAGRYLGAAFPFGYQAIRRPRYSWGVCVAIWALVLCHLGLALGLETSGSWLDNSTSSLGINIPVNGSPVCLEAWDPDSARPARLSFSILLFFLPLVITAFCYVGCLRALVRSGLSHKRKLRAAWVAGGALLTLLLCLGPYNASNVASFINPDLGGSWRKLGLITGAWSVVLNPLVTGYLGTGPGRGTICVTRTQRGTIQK

EC50 [1]: 12700 nM
EC50 [3]: 83.2 nM
Hill slope [3, 7]: 0.7745
Hill slope (95%CI) [3, 7]: 0.5397-1.0090
Selectivity ([3]; mGPR120 over mGPR40): 152.6
EC50 [5]: 37.5 nM
Hill slope [5, 8]: 0.9540
Hill slope (95%CI) [5, 8]: 0.8259-1.0820
Agonist type from dose-dependent curves ([5]; hGPR120 and mGPR120): full agonist
melting point: 89 to 91 °C
metabolic stability in vivo ([6]; C57BL/6 mice, pharmacokinetics, in words): excellent metabolic stability
Tmax ([6]; male, mouse, plasma, po, C57BL/6 mice, 10 mg/kg gavage): 0.5 h
Cmax ([6]; male, mouse, plasma, po, C57BL/6 mice, 10 mg/kg gavage, 0.5% MC, mean ± SD of four mice): 2650 ± 288 ng/mL
AUC ([6]; male, mouse, plasma, po, C57BL/6 mice, 10 mg/kg gavage, mean ± SD of four mice): 5900 ± 584 ng·h/mL
half-life ([6]; male, mouse, plasma, po, C57BL/6 mice, 10 mg/kg gavage, mean ± SD of four mice, read-out: t1/2 (converted)): 1.6 ± 0.4 h
clearance ([6]; rodents, in words): low clearance
half-life ([6]; rodents, in words): long half-life
Compound: O=C(O)CCCOc1ccc(COc2cc(F)ccc2-c2ccc(F)cc2)cc1F [Compound 14d, 4-(4-(((4,4′-difluoro-[1,1′-biphenyl]-2-yl)oxy)methyl)-2-fluorophenoxy)butanoic acid]
insulin levels 30 min after the glucose challenge ([2]; compared to vehicle-treated mice): significantly increased insulin levels
glucose AUC0–120 min ([2]; glucose 2 g/kg): significantly lower than that of vehicle-treated mice
blood glucose in OGTT ([4]; 30 mg/kg oral, glucose 3 g/kg, superior to TUG-891): significant reduction in blood glucose
dose dependence of glucose lowering and glucose AUC ([4]; 3, 10, 30, 100 mg/kg oral): dose-dependent
reduction of plasma glucose AUC ([4]; OGTT, 30 mg/kg oral, after 120 min, compared with glucose alone, p < 0.001): 25%
hypoglycemia during OGTT ([4]; normal C57BL/6 mice, during the experiment): no hypoglycemia was observed
hypoglycemic side effects ([4]; normal mice, even at a dose of 100 mg/kg): no hypoglycemic side effects were detected
